The source of these data is patent US8129371B2, “Thienopyrimidine and pyrazolopyrimidine compounds and their use as mTOR kinase and PI3 kinase inhibitors” (Wyeth LLC, priority 2007, dated 2012).

One test addresses T1, Human mTOR (FLAG-TOR) (Homo sapiens, UniProt P42345).
T1 construct: FLAG
Nature of the test: Human mTOR kinase assay with purified enzyme, DELFIA format. The test is classed as biochemical. In outline: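 Purified FLAG-mTOR in HEPES pH 7.4 buffer with 10 mM MnCl2 was preincubated with inhibitor and reacted 2 h at room temperature with His6-S6K substrate, then stopped with EDTA/EGTA. Phospho-T389 S6K detected by DELFIA with Eu-labelled antibody (40 ng/mL) after plate capture; inhibition computed from signal.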

Test [1] addresses T2, PI3K (Homo sapiens, UniProt O00329).
T2 construct: PI3 Kinase δ IC50; other: PI3 Kinase δ; other: PI3 Kinase δ isoform, fluorescence polarization
T2 sequence (O00329 1-1044): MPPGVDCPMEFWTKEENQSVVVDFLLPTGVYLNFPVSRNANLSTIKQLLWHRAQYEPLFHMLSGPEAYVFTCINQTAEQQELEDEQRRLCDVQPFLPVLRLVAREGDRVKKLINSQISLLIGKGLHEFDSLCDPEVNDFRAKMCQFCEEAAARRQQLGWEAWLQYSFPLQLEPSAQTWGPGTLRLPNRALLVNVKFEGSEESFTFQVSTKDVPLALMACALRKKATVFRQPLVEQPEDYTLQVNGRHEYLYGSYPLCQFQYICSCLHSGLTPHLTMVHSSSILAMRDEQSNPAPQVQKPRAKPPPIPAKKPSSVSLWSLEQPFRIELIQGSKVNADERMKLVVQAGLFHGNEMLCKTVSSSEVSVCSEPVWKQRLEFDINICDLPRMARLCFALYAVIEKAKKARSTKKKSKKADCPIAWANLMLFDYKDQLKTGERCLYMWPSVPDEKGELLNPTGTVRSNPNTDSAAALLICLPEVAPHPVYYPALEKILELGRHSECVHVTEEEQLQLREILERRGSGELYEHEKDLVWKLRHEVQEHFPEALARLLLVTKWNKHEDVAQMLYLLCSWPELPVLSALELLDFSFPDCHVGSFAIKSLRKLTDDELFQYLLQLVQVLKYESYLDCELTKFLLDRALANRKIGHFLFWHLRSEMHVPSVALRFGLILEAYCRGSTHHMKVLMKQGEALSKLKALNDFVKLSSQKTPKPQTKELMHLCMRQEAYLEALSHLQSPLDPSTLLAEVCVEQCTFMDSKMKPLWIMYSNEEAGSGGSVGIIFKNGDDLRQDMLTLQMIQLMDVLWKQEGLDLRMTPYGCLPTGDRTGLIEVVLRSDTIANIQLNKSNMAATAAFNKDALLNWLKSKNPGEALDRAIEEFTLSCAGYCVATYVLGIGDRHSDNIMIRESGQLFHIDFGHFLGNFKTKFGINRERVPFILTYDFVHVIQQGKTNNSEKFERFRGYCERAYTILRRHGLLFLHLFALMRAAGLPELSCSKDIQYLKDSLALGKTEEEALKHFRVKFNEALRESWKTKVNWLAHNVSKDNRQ
Nature of the test: Fluorescence polarization assay for PI3K. Type of test: biochemical. Particulars: PI3 Kinase δ. Put shortly: (§1)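 PI3K was preincubated with compound (final DMSO 1%), and the reaction was started with PIP2/ATP substrate and run 30–60 min. It was stopped with a detector mix giving 10 nM red probe and 70 nM GST-GRP.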
In general terms: Polarisation of emitted light reports the rotation of a fluorescent probe.

Test [2] concerns the target T3, PI3K (Homo sapiens, UniProt P42336).
T3 construct: PI3 Kinase α IC50; other: PI3 Kinase α; other: PI3 Kinase α isoform, fluorescence polarization
Nature of the test: Fluorescence polarization assay for PI3K. The test is classed as biochemical. The note with it: read-out: PI3 Kinase α IC50. Put shortly:
as §1

The subject of the next test is prostate line LNCap. Briefly: In vitro cell culture growth assay (MTS), LNCap. Particulars: Homo sapiens, LNCaP, 72 h, LNCap cells, three days after drug treatment. Type of test: cell-based. Put shortly:
(§2)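 Plate cells; add inhibitors on day 1; after 3 days' treatment, add MTS; read A490; express as percent growth of vehicle-treated control.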

The test system of a further test is breast line MDA468. Nature of the test: In vitro cell culture growth assay (MTS), MDA468. The note with it: Homo sapiens, 72 h, MDA468 cells, three days after drug treatment. The test is classed as cell-based. In outline:
as §2

Test [3] addresses T4, PI3K (Homo sapiens, UniProt P42338).
T4 construct: PI3 Kinase β IC50; other: PI3 Kinase β; other: PI3 Kinase β isoform, fluorescence polarization
Briefly: Fluorescence polarization assay for PI3K. Type of test: biochemical. Particulars: PI3 Kinase β. In outline:
as §1

The target in test [4] is T5, PI3K (Homo sapiens, UniProt P48736).
T5 construct: PI3 Kinase γ IC50; other: PI3 Kinase γ; other: PI3 Kinase γ isoform, fluorescence polarization
Nature of the test: Fluorescence polarization assay for PI3K. The test is classed as biochemical. Particulars: read-out: PI3 Kinase γ IC50. Put shortly:
as §1

Molecules are shown by their SMILES. pIC50: −log10 of the molar value. Where two headings read alike, the source gives them in different places.

Broadly, the pIC50 is −log10 of the IC50, conventionally taken in molar units.

T5 sequence (P48736 whole entry, canonical isoform): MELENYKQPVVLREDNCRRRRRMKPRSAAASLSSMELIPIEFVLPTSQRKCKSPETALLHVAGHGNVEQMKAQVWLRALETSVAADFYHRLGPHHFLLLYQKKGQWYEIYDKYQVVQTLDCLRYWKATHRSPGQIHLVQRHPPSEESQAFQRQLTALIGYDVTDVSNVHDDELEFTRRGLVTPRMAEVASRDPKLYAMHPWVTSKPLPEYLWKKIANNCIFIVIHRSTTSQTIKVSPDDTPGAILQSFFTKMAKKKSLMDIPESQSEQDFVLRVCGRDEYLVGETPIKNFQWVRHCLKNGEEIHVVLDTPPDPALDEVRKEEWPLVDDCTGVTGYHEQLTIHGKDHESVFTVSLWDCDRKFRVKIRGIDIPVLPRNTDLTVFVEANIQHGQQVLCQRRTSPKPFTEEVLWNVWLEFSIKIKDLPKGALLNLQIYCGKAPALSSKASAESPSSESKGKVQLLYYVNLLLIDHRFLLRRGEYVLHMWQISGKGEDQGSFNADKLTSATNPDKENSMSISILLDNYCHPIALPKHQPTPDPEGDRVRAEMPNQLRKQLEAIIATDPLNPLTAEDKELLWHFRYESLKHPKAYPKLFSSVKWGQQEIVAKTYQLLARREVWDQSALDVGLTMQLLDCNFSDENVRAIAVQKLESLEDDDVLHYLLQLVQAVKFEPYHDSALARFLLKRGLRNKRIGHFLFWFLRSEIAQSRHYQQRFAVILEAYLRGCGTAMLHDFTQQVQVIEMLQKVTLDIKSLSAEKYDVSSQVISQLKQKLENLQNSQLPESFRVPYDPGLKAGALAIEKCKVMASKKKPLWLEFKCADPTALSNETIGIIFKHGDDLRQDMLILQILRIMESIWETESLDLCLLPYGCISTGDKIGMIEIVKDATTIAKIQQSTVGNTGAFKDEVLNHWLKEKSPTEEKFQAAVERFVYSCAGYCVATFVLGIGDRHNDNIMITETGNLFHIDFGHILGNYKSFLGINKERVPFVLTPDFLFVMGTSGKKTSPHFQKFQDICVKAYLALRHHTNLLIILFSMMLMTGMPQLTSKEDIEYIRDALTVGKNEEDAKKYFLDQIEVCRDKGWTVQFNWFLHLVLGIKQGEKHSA
T3 sequence (P42336 whole entry, canonical isoform): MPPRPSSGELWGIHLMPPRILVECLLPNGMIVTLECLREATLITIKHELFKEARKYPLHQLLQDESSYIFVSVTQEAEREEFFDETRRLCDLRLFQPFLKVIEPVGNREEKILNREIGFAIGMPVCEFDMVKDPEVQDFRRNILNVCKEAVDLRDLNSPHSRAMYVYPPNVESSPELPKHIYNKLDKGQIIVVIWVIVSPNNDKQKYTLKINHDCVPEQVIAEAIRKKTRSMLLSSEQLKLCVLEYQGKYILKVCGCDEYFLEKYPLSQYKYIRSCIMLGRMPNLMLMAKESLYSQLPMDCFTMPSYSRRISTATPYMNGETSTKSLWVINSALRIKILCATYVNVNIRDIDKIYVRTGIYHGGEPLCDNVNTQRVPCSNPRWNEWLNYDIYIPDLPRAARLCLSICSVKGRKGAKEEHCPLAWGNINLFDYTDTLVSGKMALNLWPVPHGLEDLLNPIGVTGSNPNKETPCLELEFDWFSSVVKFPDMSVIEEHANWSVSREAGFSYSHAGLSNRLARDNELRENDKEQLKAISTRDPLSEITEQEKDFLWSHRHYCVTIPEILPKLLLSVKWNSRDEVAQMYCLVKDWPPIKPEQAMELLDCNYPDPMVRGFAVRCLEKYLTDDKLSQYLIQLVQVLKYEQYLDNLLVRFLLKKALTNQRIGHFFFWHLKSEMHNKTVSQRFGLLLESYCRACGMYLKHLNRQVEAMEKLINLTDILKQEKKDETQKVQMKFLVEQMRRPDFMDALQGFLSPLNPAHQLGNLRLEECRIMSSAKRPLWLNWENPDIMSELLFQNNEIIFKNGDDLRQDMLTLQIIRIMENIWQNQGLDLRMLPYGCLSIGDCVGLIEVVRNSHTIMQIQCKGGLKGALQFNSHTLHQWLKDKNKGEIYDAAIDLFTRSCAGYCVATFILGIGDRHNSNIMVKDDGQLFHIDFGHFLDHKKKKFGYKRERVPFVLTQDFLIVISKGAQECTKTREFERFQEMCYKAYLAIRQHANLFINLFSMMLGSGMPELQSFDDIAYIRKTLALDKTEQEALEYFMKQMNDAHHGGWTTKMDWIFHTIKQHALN
T4 sequence (P42338 whole entry, canonical isoform): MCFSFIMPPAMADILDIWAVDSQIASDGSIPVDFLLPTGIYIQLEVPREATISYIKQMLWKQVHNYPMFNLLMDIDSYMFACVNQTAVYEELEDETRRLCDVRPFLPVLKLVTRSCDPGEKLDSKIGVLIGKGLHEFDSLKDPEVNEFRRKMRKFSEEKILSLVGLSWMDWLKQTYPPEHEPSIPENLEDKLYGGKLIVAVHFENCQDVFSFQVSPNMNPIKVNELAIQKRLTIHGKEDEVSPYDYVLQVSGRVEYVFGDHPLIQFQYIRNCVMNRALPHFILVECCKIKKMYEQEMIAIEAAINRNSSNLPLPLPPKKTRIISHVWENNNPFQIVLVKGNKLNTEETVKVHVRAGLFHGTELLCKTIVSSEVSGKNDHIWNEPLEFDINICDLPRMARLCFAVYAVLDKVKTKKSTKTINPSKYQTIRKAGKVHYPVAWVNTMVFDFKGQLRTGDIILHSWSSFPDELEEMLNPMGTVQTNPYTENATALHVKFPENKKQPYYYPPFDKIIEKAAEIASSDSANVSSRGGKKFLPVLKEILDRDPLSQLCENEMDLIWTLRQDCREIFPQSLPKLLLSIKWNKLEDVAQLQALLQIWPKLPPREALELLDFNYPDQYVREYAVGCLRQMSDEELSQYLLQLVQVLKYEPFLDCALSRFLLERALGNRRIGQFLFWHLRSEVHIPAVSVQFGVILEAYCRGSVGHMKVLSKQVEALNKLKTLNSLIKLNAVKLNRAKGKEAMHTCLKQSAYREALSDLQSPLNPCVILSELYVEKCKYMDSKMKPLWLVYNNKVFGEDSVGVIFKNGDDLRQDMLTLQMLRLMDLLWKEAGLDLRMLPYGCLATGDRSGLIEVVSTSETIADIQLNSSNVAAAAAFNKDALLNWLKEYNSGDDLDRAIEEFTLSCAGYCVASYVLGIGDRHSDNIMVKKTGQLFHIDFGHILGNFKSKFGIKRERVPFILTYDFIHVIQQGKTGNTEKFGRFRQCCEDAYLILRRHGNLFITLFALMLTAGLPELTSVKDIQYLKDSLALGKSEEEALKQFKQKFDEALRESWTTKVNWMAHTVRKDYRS

As to `CN1CCN(c2ccc(NC(=O)Nc3ccc(-c4nc(N5CC6CCC(C5)O6)c5cnn(CC(F)(F)F)c5n4)cc3)cc2)CC1` [Example 261, 1-[4-(4-methylpiperazin-1-yl)phenyl]-3-{4-[4-(8-oxa-3-azabicyclo[3.2.1]oct-3-yl)-1-(2,2,2-trifluoroethyl)-1H-pyrazolo[3,4-d]pyrimidin-6-yl]phenyl}urea], the pIC50 against Human mTOR (FLAG-TOR) is 9.11; on PI3K [1], 6.02; on PI3K [2] (PI3 Kinase α), 6.85; with prostate line LNCap, 9.00; in the test with breast line MDA468, 8.70.
Take `CNC(=O)Nc1ccc(-c2nc(N3CC4CCC(C3)O4)c3cnn(C4CCC5(CC4)OCCO5)c3n2)cc1` [Example 105, 1-(4-(4-(8-oxa-3-azabicyclo[3.2.1]octan-3-yl)-1-(1,4-dioxaspiro[4.5]decan-8-yl)-1H-pyrazolo[3,4-d]pyrimidin-6-yl)phenyl)-3-methylurea]: the pIC50 was 9.68 against Human mTOR (FLAG-TOR); 5.62 on PI3K [1]; 5.93 on PI3K [2] (PI3 Kinase α); below 5.00 against PI3K [3]; below 5.00 on PI3K [4] (PI3 Kinase γ); 7.59 in the test on breast line MDA468.
Take `COC(=O)N1CCC(n2ncc3c(N4CC5CCC(C4)O5)nc(-c4ccc(NC(=O)OCCN5CCN(C)CC5)cc4)nc32)CC1` [Example 118, methyl 4-{6-[4-({[2-(4-methylpiperazin-1-yl)ethoxy]carbonyl}amino)phenyl]-4-(8-oxa-3-azabicyclo[3.2.1]oct-3-yl)-1H-pyrazolo[3,4-d]pyrimidin-1-yl}piperidine-1-carboxylate]: the pIC50 was below 6.10 on Human mTOR (FLAG-TOR); 5.09 at PI3K [2] (PI3 Kinase α); below 5.00 on PI3K [4] (PI3 Kinase γ); 5.55 in the test on prostate line LNCap; 5.33 in the test with breast line MDA468.
In the same order, the values of `CCn1ncc2c(N3CC4CCC(C3)O4)nc(-c3ccc(NC(=O)Nc4ccc(OCCO)cc4)cc3)nc21` [Example 281, 1-{4-[1-ethyl-4-(8-oxa-3-azabicyclo[3.2.1]oct-3-yl)-1H-pyrazolo[3,4-d]pyrimidin-6-yl]phenyl}-3-[4-(2-hydroxyethoxy)phenyl]urea] are 8.97, 6.76, 5.96, 8.40 and 7.72.
Taken in the same sequence, the figures for `CCn1ncc2c(N3CC4CCC(C3)O4)nc(-c3ccc(NC(=O)NCCC(=O)NCCN(C)C)cc3)nc21` [Example 279] were 7.63, 5.74, 5.09, 5.49 and 5.22.
In the same order, the values of `O=C(Nc1ccncc1)Nc1ccc(-c2nc(N3CC4CCC(C3)O4)c3cnn(CCO)c3n2)cc1` [Example 200, 1-{4-[1-(2-hydroxyethyl)-4-(8-oxa-3-azabicyclo[3.2.1]oct-3-yl)-1H-pyrazolo[3,4-d]pyrimidin-6-yl]phenyl}-3-pyridin-4-ylurea] are 9.41, 7.04, 5.66, 7.30 and 7.30.
Regarding `CC(C)(C)n1ncc2c(N3CC4CCC(C3)O4)nc(-c3ccc(NC(=O)OCCO)cc3)nc21` [Example 98], the pIC50 on Human mTOR (FLAG-TOR) is 9.01; on PI3K [2] (PI3 Kinase α) it was 5.85; at PI3K [4] (PI3 Kinase γ) it was below 5.00; in the test with prostate line LNCap, 7.05; in the test on breast line MDA468, 6.21.
For `COCC(COC)n1ncc2c(N3CC4CCC(C3)O4)nc(-c3ccc(NC(=O)Nc4cccnc4)cc3)nc21` [Example 326, 1-(4-{1-[2-methoxy-1-(methoxymethyl)ethyl]-4-(8-oxa-3-azabicyclo[3.2.1]oct-3-yl)-1H-pyrazolo[3,4-d]pyrimidin-6-yl}phenyl)-3-pyridin-3-ylurea], the pIC50 against Human mTOR (FLAG-TOR) (purified human mTOR enzyme, DELFIA format) is 8.58; on PI3K [2] (PI3 Kinase α isoform, fluorescence polarization) it was 5.93; on PI3K [4] (PI3 Kinase γ isoform, fluorescence polarization), 5.02; in the test with prostate line LNCap, 7.52; in the test with breast line MDA468, 6.82.
On to `CN1CCN(c2ccc(NC(=O)Nc3ccc(-c4nc(N5CC6CCC(C5)O6)c5cnn(CCO)c5n4)cc3)cc2)CC1` [Example 203, 1-{4-[1-(2-hydroxyethyl)-4-(8-oxa-3-azabicyclo[3.2.1]oct-3-yl)-1H-pyrazolo[3,4-d]pyrimidin-6-yl]phenyl}-3-[4-(4-methylpiperazin-1-yl)phenyl]urea], for which the pIC50 is 8.97 at Human mTOR (FLAG-TOR); 6.98 on PI3K [2] (PI3 Kinase α); 5.94 at PI3K [4] (PI3 Kinase γ); 9.00 in the test on prostate line LNCap; 8.70 in the test with breast line MDA468.
In the same order, the values of `CCOC(=O)N1CCC(n2ncc3c(N4CC5CCC(C4)O5)nc(-c4ccc(NC(=O)NCCF)cc4)nc32)CC1` [Example 32, ethyl 4-[6-(4-{[(2-fluoroethyl)carbamoyl]amino}phenyl)-4-(8-oxa-3-azabicyclo[3.2.1]oct-3-yl)-1H-pyrazolo[3,4-d]pyrimidin-1-yl]piperidine-1-carboxylate] are 9.48, 5.48, 5.02, 8.05 and 6.68.
Take `CN(C)CCn1ncc2c(N3CC4CCC(C3)O4)nc(-c3ccc(NC(=O)OCCO)cc3)nc21` [Example 158, 2-hydroxyethyl (4-{1-[2-(dimethylamino)ethyl]-4-(8-oxa-3-azabicyclo[3.2.1]oct-3-yl)-1H-pyrazolo[3,4-d]pyrimidin-6-yl}phenyl)carbamate]: the pIC50 against Human mTOR (FLAG-TOR) is 7.57; at PI3K [2] (PI3 Kinase α) it was 5.45; at PI3K [4] (PI3 Kinase γ) it was below 5.00; with prostate line LNCap, 6.17; with breast line MDA468 it was 5.30.
Taken in the same sequence, the figures for `O=C(Nc1ccc(-c2nc(N3CC4CCC(C3)O4)c3cnn(CC(F)(F)F)c3n2)cc1)Nc1cccnc1` [Example 4, 1-{4-[4-(8-oxa-3-azabicyclo[3.2.1]oct-3-yl)-1-(2,2,2-trifluoroethyl)-1H-pyrazolo[3,4-d]pyrimidin-6-yl]phenyl}-3-pyridin-3-ylurea] were 9.74, 6.46, 5.67, above 7.57 and above 7.57.
In the same order, the values of `Cn1ncc2c(N3CC4CCC(C3)O4)nc(-c3ccc(NC(=O)Nc4ccc(N5CCOCC5)nc4)cc3)nc21` [Example 237, 1-{4-[1-methyl-4-(8-oxa-3-azabicyclo[3.2.1]oct-3-yl)-1H-pyrazolo[3,4-d]pyrimidin-6-yl]phenyl}-3-(6-morpholin-4-ylpyridin-3-yl)urea] are 9.43, 5.87, below 5.00, 8.15 and 7.28.
In the same order, the values of `N#CCCn1ncc2c(N3CC4CCC(C3)O4)nc(-c3ccc(NC(=O)Nc4ccc(CCO)cc4)cc3)nc21` [Example 219, 1-{4-[1-(2-cyanoethyl)-4-(8-oxa-3-azabicyclo[3.2.1]oct-3-yl)-1H-pyrazolo[3,4-d]pyrimidin-6-yl]phenyl}-3-[4-(2-hydroxyethyl)phenyl]urea] are 10.09, 7.36, 5.86, above 9.00 and above 9.00.
